Where two headings read alike, the source gives them in different places. Positions of bridges follow the written chain, without caps; N, C: chain ends. Residues, ends and D or L forms follow the SMILES beside them. No end group written: not given here.
Legend:
Assay type in all cases: binding
FGF-R4 ECD = target: T1, FGF-R4 ECD (Homo sapiens, UniProt P22455); experiment: single concentration BLI of crude peptides
T1 construct: DNA constructs for the extracellular domain (ECD) of human FGF-; HPC4 (C); made in house; host or cells: HEK 293-6E
T1 sequence (P22455 22-369 limits assumed): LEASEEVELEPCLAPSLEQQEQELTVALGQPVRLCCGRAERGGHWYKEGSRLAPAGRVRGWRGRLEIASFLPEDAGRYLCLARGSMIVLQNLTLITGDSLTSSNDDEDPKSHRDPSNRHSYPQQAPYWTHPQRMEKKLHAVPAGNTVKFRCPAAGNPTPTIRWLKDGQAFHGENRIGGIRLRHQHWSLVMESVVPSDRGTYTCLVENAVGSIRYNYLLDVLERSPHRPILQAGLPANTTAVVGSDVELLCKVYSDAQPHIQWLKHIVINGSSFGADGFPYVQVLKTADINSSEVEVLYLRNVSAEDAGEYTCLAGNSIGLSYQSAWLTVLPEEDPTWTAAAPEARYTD
In short: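 Streptavidin biosensors carrying biotinylated FGF receptor ECD were immersed in peptide (~1 μM for crude single-point runs, a concentration series for purified peptides) and then in peptide-free buffer. KD was obtained by fitting the BLI association and dissociation curves.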

FGF-R1C ECD = target: T2, FGF-R1C ECD (Homo sapiens, UniProt P11362); experiment: biochemical; set-up: DNA constructs for the extracellular domain (ECD) of human FGF-; HPC4 (C); made in house; host or cells: HEK 293-6E
T2 sequence (P11362 22-376 limits assumed): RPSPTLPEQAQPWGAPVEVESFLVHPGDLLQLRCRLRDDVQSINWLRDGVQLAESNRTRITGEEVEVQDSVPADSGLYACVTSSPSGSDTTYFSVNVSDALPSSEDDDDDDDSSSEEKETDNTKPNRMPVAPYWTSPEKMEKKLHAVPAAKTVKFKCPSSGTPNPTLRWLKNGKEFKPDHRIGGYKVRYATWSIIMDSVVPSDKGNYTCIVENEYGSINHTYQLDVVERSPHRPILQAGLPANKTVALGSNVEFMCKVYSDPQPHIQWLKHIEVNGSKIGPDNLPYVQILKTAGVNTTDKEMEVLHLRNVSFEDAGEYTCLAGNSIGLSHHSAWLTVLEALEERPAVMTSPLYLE
In short: (§1)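 BLI, streptavidin sensors loaded with biotinylated receptor ECD. Single-point: ~1 μM crude peptide, PBS pH7.4/0.05% Tween-20/0.01% BSA; association then dissociation in buffer. KD corrected for UPLC-CAD-determined concentration.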

FGF-R3C ECD = target: T3, FGF-R3C ECD (Homo sapiens, UniProt P22607); experiment: biochemical; set-up: DNA constructs for the extracellular domain (ECD) of human FGF-; HPC4 (C); made in house; host or cells: HEK 293-6E
T3 sequence (P22607 23-375 limits assumed): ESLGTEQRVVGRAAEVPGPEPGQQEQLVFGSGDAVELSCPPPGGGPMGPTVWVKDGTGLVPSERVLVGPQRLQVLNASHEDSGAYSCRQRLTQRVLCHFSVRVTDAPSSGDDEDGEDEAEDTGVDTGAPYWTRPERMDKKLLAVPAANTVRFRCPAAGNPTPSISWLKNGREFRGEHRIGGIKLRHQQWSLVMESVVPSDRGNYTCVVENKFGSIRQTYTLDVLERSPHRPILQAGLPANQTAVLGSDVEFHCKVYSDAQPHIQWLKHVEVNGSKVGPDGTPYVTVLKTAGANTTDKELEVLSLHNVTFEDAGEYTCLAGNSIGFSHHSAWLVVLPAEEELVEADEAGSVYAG
In short: as §1

[1] = crude NNK peptides, single concentration BLI (Table S3), read-out: KD (4)

## CC[C@H](C)[C@@H]1NC(=O)[C@H](Cc2ccc(O)cc2)NC(=O)[C@H](C)NC(=O)[C@H](CC(C)C)NC(=O)[C@H](Cc2c[nH]c3ccccc23)NC(=O)[C@@H](NC(=O)[C@H](CCCCN)NC(=O)[C@@H](NC(=O)[C@H](CCSC)NC(=O)[C@H](CCSC)NC(C)=O)C(C)C)CSSC[C@@H](C(=O)NCC(=O)N[C@@H](CO)C(=O)NCC(=O)N[C@@H](CO)C(=O)N[C@@H](CC(=O)O)C(=O)N[C@@H](Cc2ccc(O)cc2)C(=O)N[C@@H](CCCCN)C(=O)N[C@@H](CC(=O)O)C(=O)N[C@@H](CC(=O)O)C(=O)N[C@@H](CC(=O)O)C(=O)N[C@@H](CC(=O)O)C(=O)N[C@@H](CCCCN)C(N)=O)NC(=O)[C@H]([C@@H](C)O)NC(=O)[C@H](CCCNC(=N)N)NC1=O (Ac-MMVKCWLAYIRTCGSGSDYKDDDDK-NH2; disulfide 5-13)
FGF-R4 ECD; [1]
  Kd: > 10 µM
FGF-R1C ECD
  Kd: > 10 µM
FGF-R3C ECD
  Kd: > 10 µM

## CC[C@H](C)[C@@H]1NC(=O)[C@H](Cc2ccccc2)NC(=O)[C@@H]2CCCN2C(=O)[C@H](CC(C)C)NC(=O)[C@H](Cc2ccccc2)NC(=O)[C@H](CC(C)C)NC(=O)[C@H](CC(=O)O)NC(=O)[C@H](Cc2ccccc2)NC(=O)[C@H]([C@@H](C)O)NC(=O)[C@@H](NC(=O)[C@@H](N)CCSC)CSSC[C@@H](C(=O)NCC(=O)N[C@@H](CO)C(=O)NCC(=O)N[C@@H](CO)C(=O)N[C@@H](CC(=O)O)C(=O)N[C@@H](Cc2ccc(O)cc2)C(=O)N[C@@H](CCCCN)C(=O)N[C@@H](CC(=O)O)C(=O)N[C@@H](CC(=O)O)C(=O)N[C@@H](CC(=O)O)C(=O)N[C@@H](CC(=O)O)C(=O)N[C@@H](CCCCN)C(N)=O)NC(=O)[C@H](Cc2ccccc2)NC1=O (H-MCTFDLFLPFIFCGSGSDYKDDDDK-NH2; disulfide 2-13)
FGF-R4 ECD; [1]
  Kd: > 10 µM
FGF-R1C ECD
  Kd: > 10 µM
FGF-R3C ECD
  Kd: 0.177 µM

## CC[C@H](C)[C@@H]1NC(=O)[C@H](Cc2ccccc2)NC(=O)[C@@H]2CCCN2C(=O)[C@H](Cc2ccccc2)NC(=O)[C@H](Cc2c[nH]cn2)NC(=O)[C@H]([C@@H](C)O)NC(=O)[C@H](CC(=O)O)NC(=O)[C@H](Cc2ccccc2)NC(=O)[C@H]([C@@H](C)O)NC(=O)[C@@H](NC(=O)[C@@H](N)CCSC)CSSC[C@@H](C(=O)NCC(=O)N[C@@H](CO)C(=O)NCC(=O)N[C@@H](CO)C(=O)N[C@@H](CC(=O)O)C(=O)N[C@@H](Cc2ccc(O)cc2)C(=O)N[C@@H](CCCCN)C(=O)N[C@@H](CC(=O)O)C(=O)N[C@@H](CC(=O)O)C(=O)N[C@@H](CC(=O)O)C(=O)N[C@@H](CC(=O)O)C(=O)N[C@@H](CCCCN)C(N)=O)NC(=O)[C@H]([C@@H](C)O)NC1=O (H-MCTFDTHFPFITCGSGSDYKDDDDK-NH2; disulfide 2-13)
FGF-R4 ECD; [1]
  Kd: > 10 µM
FGF-R1C ECD
  Kd: > 10 µM
FGF-R3C ECD
  Kd: 0.287 µM

## CC[C@H](C)[C@@H]1NC(=O)[C@@H]2CCCN2C(=O)[C@H](CC(C)C)NC(=O)[C@@H]2CCCN2C(=O)[C@H](Cc2c[nH]c3ccccc23)NC(=O)[C@@H]2CCCN2C(=O)[C@H](Cc2ccccc2)NC(=O)[C@H](CCCCN)NC(=O)[C@H]([C@@H](C)O)NC(=O)[C@@H](NC(=O)[C@@H](N)CCSC)CSSC[C@@H](C(=O)NCC(=O)N[C@@H](CO)C(=O)NCC(=O)N[C@@H](CO)C(=O)N[C@@H](CC(=O)O)C(=O)N[C@@H](Cc2ccc(O)cc2)C(=O)N[C@@H](CCCCN)C(=O)N[C@@H](CC(=O)O)C(=O)N[C@@H](CC(=O)O)C(=O)N[C@@H](CC(=O)O)C(=O)N[C@@H](CC(=O)O)C(=O)N[C@@H](CCCCN)C(N)=O)NC(=O)[C@H](C)NC(=O)[C@H](Cc2c[nH]c3ccccc23)NC(=O)[C@H](Cc2ccccc2)NC1=O (H-MCTKFPWPLPIFWACGSGSDYKDDDDK-NH2; disulfide 2-15)
FGF-R4 ECD; [1]
  Kd: 0.346 µM
FGF-R1C ECD
  Kd: 0.545 µM
FGF-R3C ECD
  Kd: > 10 µM

## CSCC[C@H](N)C(=O)N[C@H]1CSSC[C@@H](C(=O)NCC(=O)N[C@@H](CO)C(=O)NCC(=O)N[C@@H](CO)C(=O)N[C@@H](CC(=O)O)C(=O)N[C@@H](Cc2ccc(O)cc2)C(=O)N[C@@H](CCCCN)C(=O)N[C@@H](CC(=O)O)C(=O)N[C@@H](CC(=O)O)C(=O)N[C@@H](CC(=O)O)C(=O)N[C@@H](CC(=O)O)C(=O)N[C@@H](CCCCN)C(N)=O)NC(=O)[C@H](CC(C)C)NC(=O)[C@H](C(C)C)NC(=O)[C@H](Cc2ccccc2)NC(=O)[C@@H]2CCCN2C(=O)[C@H](CC(C)C)NC(=O)[C@H](Cc2ccccc2)NC(=O)[C@H](CO)NC(=O)[C@H](CC(=O)O)NC(=O)[C@H](Cc2ccccc2)NC(=O)[C@H](C(C)C)NC1=O (H-MCVFDSFLPFVLCGSGSDYKDDDDK-NH2; disulfide 2-13)
FGF-R4 ECD; [1]
  Kd: > 10 µM
FGF-R1C ECD
  Kd: > 10 µM
FGF-R3C ECD
  Kd: 0.06 µM

## CSCC[C@H](N)C(=O)N[C@H]1CSSC[C@@H](C(=O)NCC(=O)N[C@@H](CO)C(=O)NCC(=O)N[C@@H](CO)C(=O)N[C@@H](CC(=O)O)C(=O)N[C@@H](Cc2ccc(O)cc2)C(=O)N[C@@H](CCCCN)C(=O)N[C@@H](CC(=O)O)C(=O)N[C@@H](CC(=O)O)C(=O)N[C@@H](CC(=O)O)C(=O)N[C@@H](CC(=O)O)C(=O)N[C@@H](CCCCN)C(N)=O)NC(=O)[C@H](Cc2ccccc2)NC(=O)[C@H](C(C)C)NC(=O)[C@H](Cc2ccccc2)NC(=O)[C@@H]2CCCN2C(=O)[C@H](CC(C)C)NC(=O)[C@H](Cc2c[nH]c3ccccc23)NC(=O)[C@H](CO)NC(=O)[C@H](CC(=O)O)NC(=O)[C@H](Cc2ccccc2)NC(=O)[C@H](C(C)C)NC1=O (H-MCVFDSWLPFVFCGSGSDYKDDDDK-NH2; disulfide 2-13)
FGF-R4 ECD; [1]
  Kd: > 10 µM
FGF-R1C ECD
  Kd: > 10 µM
FGF-R3C ECD
  Kd: 1.06 µM

## CSCC[C@H](N)C(=O)N[C@H]1CSSC[C@@H](C(=O)NCC(=O)N[C@@H](CO)C(=O)NCC(=O)N[C@@H](CO)C(=O)N[C@@H](CC(=O)O)C(=O)N[C@@H](Cc2ccc(O)cc2)C(=O)N[C@@H](CCCCN)C(=O)N[C@@H](CC(=O)O)C(=O)N[C@@H](CC(=O)O)C(=O)N[C@@H](CC(=O)O)C(=O)N[C@@H](CC(=O)O)C(=O)N[C@@H](CCCCN)C(N)=O)NC(=O)[C@H](Cc2ccc(O)cc2)NC(=O)[C@H](C(C)C)NC(=O)[C@H](Cc2ccccc2)NC(=O)[C@@H]2CCCN2C(=O)[C@H](CC(C)C)NC(=O)[C@H](Cc2c[nH]c3ccccc23)NC(=O)[C@H](CO)NC(=O)[C@H](CC(=O)O)NC(=O)[C@H](Cc2ccccc2)NC(=O)[C@H](C(C)C)NC1=O (H-MCVFDSWLPFVYCGSGSDYKDDDDK-NH2; disulfide 2-13)
FGF-R4 ECD; [1]
  Kd: > 10 µM
FGF-R1C ECD
  Kd: > 10 µM
FGF-R3C ECD
  Kd: 0.618 µM

## GSGSDYKDDDDK-NH2 [flag, reference compound]
FGF-R4 ECD
  Kd: > 10 µM
FGF-R1C ECD
  Kd: > 10 µM
FGF-R3C ECD
  Kd: > 10 µM

— paper PMC10763615, “Identification and engineering of potent cyclic peptides with selective or promiscuous binding through biochemical profiling and bioinformatic data analysis” (RSC Chemical Biology, 2023)
